Test in all cases: cell-based
One experiment concerns the target human CB2 receptor (Homo sapiens, UniProt P34972). Type of experiment: cell-based.
The target of the next experiment is T1, rat CB2 receptor (Rattus norvegicus, UniProt Q9QZN9).
T1 sequence (Q9QZN9 1-360): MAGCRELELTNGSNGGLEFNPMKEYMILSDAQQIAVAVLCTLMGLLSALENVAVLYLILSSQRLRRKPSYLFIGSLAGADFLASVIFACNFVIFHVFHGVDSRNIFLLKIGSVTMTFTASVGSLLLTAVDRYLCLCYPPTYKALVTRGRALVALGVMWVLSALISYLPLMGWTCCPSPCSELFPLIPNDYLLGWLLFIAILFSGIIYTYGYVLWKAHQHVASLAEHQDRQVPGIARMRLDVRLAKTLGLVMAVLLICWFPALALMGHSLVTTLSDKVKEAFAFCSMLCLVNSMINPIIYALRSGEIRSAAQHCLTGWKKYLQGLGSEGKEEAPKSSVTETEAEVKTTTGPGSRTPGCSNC
The experiment is classed as cell-based.

In a further experiment the target is human CB1 receptor (Homo sapiens, UniProt P21554). As to conditions: for inverse agonist mark, human CB1 receptor: asterisk at the compound number.
Where [1] appears, read: change in intracellular cAMP, CHO-K1 hCB2 cells, class AR, read-out: EC50 values for human CB2 receptor.

Read-outs that look alike come from different tables or passages of the source.

As usually defined, the EC50 is the concentration giving half of the maximal effect.

Chain of human CB2 receptor (P34972 whole entry): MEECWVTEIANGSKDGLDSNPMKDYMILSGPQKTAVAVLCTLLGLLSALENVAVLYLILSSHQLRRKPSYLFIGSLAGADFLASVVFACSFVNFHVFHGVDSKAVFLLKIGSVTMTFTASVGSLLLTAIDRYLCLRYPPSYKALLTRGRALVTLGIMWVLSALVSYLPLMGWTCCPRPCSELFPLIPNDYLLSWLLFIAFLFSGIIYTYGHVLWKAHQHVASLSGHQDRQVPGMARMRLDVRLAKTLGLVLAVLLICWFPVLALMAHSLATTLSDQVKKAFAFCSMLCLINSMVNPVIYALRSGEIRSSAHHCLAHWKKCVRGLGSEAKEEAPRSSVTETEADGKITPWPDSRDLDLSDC
Chain of human CB1 receptor (P21554 whole entry): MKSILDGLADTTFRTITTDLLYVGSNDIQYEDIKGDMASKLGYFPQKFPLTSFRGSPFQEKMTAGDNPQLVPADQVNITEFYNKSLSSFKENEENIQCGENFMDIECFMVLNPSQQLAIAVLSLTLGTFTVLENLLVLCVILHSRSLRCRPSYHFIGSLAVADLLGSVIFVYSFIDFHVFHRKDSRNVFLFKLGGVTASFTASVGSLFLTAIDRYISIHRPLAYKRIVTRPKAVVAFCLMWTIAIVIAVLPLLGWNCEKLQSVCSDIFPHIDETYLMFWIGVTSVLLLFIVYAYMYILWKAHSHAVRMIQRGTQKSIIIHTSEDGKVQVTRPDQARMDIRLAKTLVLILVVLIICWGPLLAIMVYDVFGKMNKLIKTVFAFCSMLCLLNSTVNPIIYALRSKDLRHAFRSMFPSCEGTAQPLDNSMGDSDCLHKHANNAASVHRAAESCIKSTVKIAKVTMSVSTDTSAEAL

In the case of `CC(C)(C)NC(=O)c1cnc2c(c1)N(S(=O)(=O)c1ccc(C#N)cc1)CCO2` [Example 3, N-tert-butyl-1-(4-cyanophenylsulfonyl)-2,3-dihydro-1H-pyrido[2,3-b][1,4]oxazine-7-carboxamide], the EC50 at human CB2 receptor and at rat CB2 receptor was at most 0.03 µM each time.

Take `CC(C)(C)NC(=O)c1cnc2c(c1)N(S(=O)(=O)c1ccc(F)cc1)CCO2` [Example 7, N-tert-butyl-1-(4-fluoro-phenylsulfonyl)-2,3-dihydro-1H-pyrido[2,3-b][1,4]oxazine-7-carboxamide]: the EC50 on human CB2 receptor and on rat CB2 receptor was at most 0.03 µM each time.

As to `CC(C)(C)CNC(=O)c1cnc2c(c1)N(S(=O)(=O)c1ccc(F)cc1)CCO2` [Example 11], the EC50 on human CB2 receptor and at rat CB2 receptor was at most 0.03 µM in each case.

For the molecule `CC(C)(C)NC(=O)c1cnc2c(c1)N(S(=O)(=O)c1ccc(Cl)cc1)CCO2` [Example 24, N-tert-butyl-1-(4-chlorophenylsulfonyl)-2,3-dihydro-1H-pyrido[2,3-b][1,4]oxazine-7-carboxamide], the EC50 on human CB2 receptor and at rat CB2 receptor was at most 0.03 µM throughout.

In the case of `O=C(NC1CCCC1)c1cnc2c(c1)N(S(=O)(=O)c1ccc(Cl)cc1)CCO2` [Example 25, 1-(4-chlorophenyl-sulfonyl)-N-cyclopentyl-2,3-dihydro-1H-pyrido[2,3-b][1,4]oxazine-7-carboxamide], the EC50 on human CB2 receptor and at rat CB2 receptor was at most 0.03 µM each time.

On to `CC(C)(C)NC(=O)c1cnc2c(c1)N(S(=O)(=O)c1cccc3ccccc13)CCO2` [Example 87, N-tert-butyl-1-(naphthalen-1-ylsulfonyl)-2,3-dihydro-1H-pyrido[2,3-b][1,4]oxazine-7-carboxamide], for which the 50% effective concentration (EC50) on human CB2 receptor and on human CB1 receptor was above 30 µM throughout.

With `CC(C)(C)NC(=O)c1cnc2c(c1)N(S(=O)(=O)c1ccc3ccccc3c1)CCO2` [Example 88, N-tert-butyl-1-(naphthalen-2-ylsulfonyl)-2,3-dihydro-1H-pyrido[2,3-b][1,4]oxazine-7-carboxamide], the EC50 at human CB2 receptor and at human CB1 receptor was above 30 µM throughout.

In the case of `Cc1cc(S(=O)(=O)N2CCOc3ncc(C(=O)NC(C)(C)C)cc32)c(C)s1` [Example 91, N-tert-butyl-1-(2,5-dimethylthiophen-3-ylsulfonyl)-2,3-dihydro-1H-pyrido[2,3-b][1,4]oxazine-7-carboxamide], the 50% effective concentration (EC50) at human CB2 receptor and on human CB1 receptor was above 30 µM each time.

`O=C(NCCO)c1cnc2c(c1)N(S(=O)(=O)c1ccc(Cl)cc1F)CCO2` [Example 115, 1-(4-chloro-2-fluorophenylsulfonyl)-N-(2-hydroxyethyl)-2,3-dihydro-1H-pyrido[2,3-b][1,4]oxazine-7-carboxamide]: the EC50 on human CB2 receptor (setting [1]) and on human CB1 receptor was above 30 µM throughout.

As for `O=C(c1cnc2c(c1)N(S(=O)(=O)c1ccc(Cl)c(Cl)c1)CCO2)N1CCN(c2ccccn2)CC1` [Example 117], the EC50 at human CB2 receptor was above 30 µM. Moreover, the “inverse agonist mark, human CB1 receptor” value on human CB1 receptor is 11, 24, 25, 42, 43*, 67, 117*, 121, 124, 131, 132, 148, 150, 151,.

`O=C(c1cnc2c(c1)N(S(=O)(=O)c1ccc(Cl)c(Cl)c1)CCO2)N1CC(O)C1` [Example 125, (1-(3,4-dichlorophenyl-sulfonyl)-2,3-dihydro-1H-pyrido[2,3-b][1,4]oxazin-7-yl)(3-hydroxyazetidin-1-yl)methanone]: the EC50 on human CB2 receptor (setting [1]) and on human CB1 receptor was above 30 µM throughout.

In the case of `O=C(N[C@H]1CC[C@H](O)CC1)c1cnc2c(c1)N(S(=O)(=O)c1ccc(Cl)c(Cl)c1)CCO2` [Example 134, 1-(3,4-dichlorophenyl-sulfonyl)-N-(trans-4-hydroxycyclohexyl)-2,3-dihydro-1H-pyrido[2,3-b][1,4]oxazine-7-carboxamide], the EC50 on human CB2 receptor (setting [1]) and at human CB1 receptor was above 30 µM in each case.

Regarding `CC(C)(C)NC(=O)c1cnc2c(c1)N(S(=O)(=O)N1CCC(c3ccccc3)CC1)CCO2` [Example 158, N-tert-butyl-1-(4-phenylpiperidin-1-ylsulfonyl)-2,3-dihydro-1H-pyrido[2,3-b][1,4]oxazine-7-carboxamide], the EC50 on human CB2 receptor and on human CB1 receptor was above 30 µM each time.

For `CCC(C)(C)NC(=O)c1cnc2c(c1)N(S(=O)(=O)N1CCC(c3ccccc3)CC1)CCO2` [Example 159, N-tert-pentyl-1-(4-phenylpiperidin-1-ylsulfonyl)-2,3-dihydro-1H-pyrido[2,3-b][1,4]oxazine-7-carboxamide], the EC50 on human CB2 receptor and on human CB1 receptor was above 30 µM in each case.

Turning to `CC(C)(CO)CNC(=O)c1cnc2c(c1)N(S(=O)(=O)N1CCC(c3ccccc3)CC1)CCO2` [Example 161, N-(3-hydroxy-2,2-dimethylpropyl)-1-(4-phenylpiperidin-1-ylsulfonyl)-2,3-dihydro-1H-pyrido[2,3-b][1,4]oxazine-7-carboxamide], the EC50 on human CB2 receptor and at human CB1 receptor was above 30 µM each time.

For the molecule `CN1CCN(S(=O)(=O)N2CCOc3ncc(C(=O)NC(C)(C)C)cc32)CC1` [Example 174, N-tert-butyl-1-(4-methylpiperazin-1-ylsulfonyl)-2,3-dihydro-1H-pyrido[2,3-b][1,4] oxazine-7-carboxamide], the EC50 on human CB2 receptor and at human CB1 receptor was above 30 µM each time.

On to `CC(C)(C)NC(=O)c1cnc2c(c1)N(S(=O)(=O)N1CCc3ccccc3C1)CCO2` [Example 188, N-tert-butyl-1-(3,4-dihydroisoquinolin-2(1H)-ylsulfonyl)-2,3-dihydro-1H-pyrido[2,3-b][1,4]oxazine-7-carboxamide], for which, at human CB2 receptor, the EC50 was above 30 µM. The “inverse agonist mark, human CB1 receptor” value at human CB1 receptor is on record as 152, 154, 155, 165, 184, 185, 187, 188*, 212, 214, 217, 227.

`CCC(C)(C)NC(=O)c1cnc2c(c1)N(S(=O)(=O)N1CCc3ccccc3C1)CCO2` [Example 189, 1-(3,4-dihydroisoquinolin-2(1H)-ylsulfonyl)-N-tert-pentyl-2,3-dihydro-1H-pyrido[2,3-b][1,4]oxazine-7-carboxamide]: the EC50 at human CB2 receptor and on human CB1 receptor was above 30 µM in each case.

Regarding `CC(C)(CO)NC(=O)c1cnc2c(c1)N(S(=O)(=O)N1CCc3ccccc3C1)CCO2` [Example 190, 1-(3,4-dihydroisoquinolin-2(1H)-ylsulfonyl)-N-(1-hydroxy-2-methylpropan-2-yl)-2,3-dihydro-1H-pyrido[2,3-b][1,4]oxazine-7-carboxamide], the EC50 at human CB2 receptor and at human CB1 receptor was above 30 µM in each case.

Take `O=C(NC1(C(=O)O)CCC1)c1cnc2c(c1)N(S(=O)(=O)c1ccc(C(F)(F)F)cc1)CCO2` [Example 208, 1-(1-(4-(trifluoromethyl)phenylsulfonyl)-2,3-dihydro-1H-pyrido[2,3-b][1,4]oxazine-7-carboxamido)cyclobutanecarboxylic acid]: the EC50 at human CB2 receptor (setting [1]) and at human CB1 receptor was above 30 µM in each case.

Take `CC1(C)CNC(c2cnc3c(c2)N(S(=O)(=O)c2ccc(C(F)(F)F)cc2)CCO3)=N1` [Example 224, 7-(4,4-dimethyl-4,5-dihydro-1H-imidazol-2-yl)-1-(4-(trifluoromethyl)phenylsulfonyl)-2,3-dihydro-1H-pyrido[2,3-b][1,4]oxazine]: the EC50 at human CB2 receptor (setting [1]) and at human CB1 receptor was above 30 µM each time.
